Assay results as given in PubChem BioAssay (NCI).
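Protocol summary: plate cells (96-well), add compound at 5 concentrations, incubate 48 h, interpolate endpoints linearly. GI50 marks 50% less growth. TGI: concentration producing complete growth inhibition.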

Tests used:
Assay in all cases: DTP human tumour cell line panel, 48 h
SF-295 CNS = system: SF-295 CNS
786-0 renal = system: 786-0 renal
HS 578T breast = system: HS 578T breast
MALME-3M melanoma = system: MALME-3M melanoma
A498 renal = system: A498 renal
NCI-H23 lung = system: NCI-H23 lung
SR leukemia = system: SR leukemia
IGROV1 ovarian = system: IGROV1 ovarian
A549 NSCLC = system: A549 NSCLC
OVCAR-8 ovarian = system: OVCAR-8 ovarian
OVCAR-5 ovarian = system: OVCAR-5 ovarian
SK-OV-3 ovarian = system: SK-OV-3 ovarian
RXF 393 renal = system: RXF 393 renal
HL-60(TB) leukemia = system: HL-60(TB) leukemia
SK-MEL-2 melanoma = system: SK-MEL-2 melanoma
SW-620 colon = system: SW-620 colon
HT29 colon = system: HT29 colon
OVCAR-3 ovarian = system: OVCAR-3 ovarian
MDA-MB-435 = system: MDA-MB-435
K-562 leukemia = system: K-562 leukemia
KM12 colon = system: KM12 colon
BT-549 breast = system: BT-549 breast
COLO 205 colon = system: COLO 205 colon
DU-145 prostate = system: DU-145 prostate
UACC-62 melanoma = system: UACC-62 melanoma
MDA-MB-468 breast = system: MDA-MB-468 breast
SK-MEL-28 melanoma = system: SK-MEL-28 melanoma
T-47D breast = system: T-47D breast
UACC-257 melanoma = system: UACC-257 melanoma
NCI-H226 lung = system: NCI-H226 lung
ACHN renal = system: ACHN renal
HCT-15 colon = system: HCT-15 colon
MOLT-4 leukemia = system: MOLT-4 leukemia
SN12C renal = system: SN12C renal
MCF7 breast = system: MCF7 breast
CAKI-1 renal = system: CAKI-1 renal
HCT-116 colon = system: HCT-116 colon
UO-31 renal = system: UO-31 renal
M14 melanoma = system: M14 melanoma
OVCAR-4 ovarian = system: OVCAR-4 ovarian
SK-MEL-5 melanoma = system: SK-MEL-5 melanoma
U251 CNS = system: U251 CNS
NCI-H460 lung = system: NCI-H460 lung
SNB-19 CNS = system: SNB-19 CNS
HOP-62 NSCLC = system: HOP-62 NSCLC
HOP-92 NSCLC = system: HOP-92 NSCLC
SF-539 CNS = system: SF-539 CNS
RPMI-8226 leukemia = system: RPMI-8226 leukemia
PC-3 prostate = system: PC-3 prostate
EKVX NSCLC = system: EKVX NSCLC
SF-268 CNS = system: SF-268 CNS
TK-10 renal = system: TK-10 renal
MDA-MB-231 breast = system: MDA-MB-231 breast
LOX IMVI melanoma = system: LOX IMVI melanoma
HCC-2998 colon = system: HCC-2998 colon
NCI-H522 lung = system: NCI-H522 lung
CCRF-CEM leukemia = system: CCRF-CEM leukemia

SMILES: COc1ccc2[nH]c(=O)cc(-n3ncc(C(=O)/C=C/c4cc(OC)c(OC)c(OC)c4)c3C)c2c1
- GI50 (SF-295 CNS): 4.64 µM
- TGI (SF-295 CNS): 16.6 µM
- GI50 (786-0 renal): 11 µM
- TGI (786-0 renal): 25.3 µM
- GI50 (HS 578T breast): 8.96 µM
- TGI (HS 578T breast): 95.2 µM
- GI50 (MALME-3M melanoma): 6.82 µM
- TGI (MALME-3M melanoma): 19.9 µM
- GI50 (A498 renal): 19.1 µM
- TGI (A498 renal): 36.3 µM
- GI50 (NCI-H23 lung): 3.5 µM
- TGI (NCI-H23 lung): 13 µM
- GI50 (SR leukemia): 4.2 µM
- TGI (SR leukemia): > 100 µM
- GI50 (IGROV1 ovarian): 3.46 µM
- TGI (IGROV1 ovarian): 13.5 µM
- GI50 (A549 NSCLC): 11.5 µM
- TGI (A549 NSCLC): 52.2 µM
- GI50 (OVCAR-8 ovarian): 3.46 µM
- TGI (OVCAR-8 ovarian): 12.3 µM
- GI50 (OVCAR-5 ovarian): 3.99 µM
- TGI (OVCAR-5 ovarian): 15.1 µM
- GI50 (SK-OV-3 ovarian): 12 µM
- TGI (SK-OV-3 ovarian): 36.5 µM
- GI50 (RXF 393 renal): 2.79 µM
- TGI (RXF 393 renal): 9.94 µM
- GI50 (HL-60(TB) leukemia): 3.88 µM
- TGI (HL-60(TB) leukemia): 29 µM
- GI50 (SK-MEL-2 melanoma): 6.06 µM
- TGI (SK-MEL-2 melanoma): 18.7 µM
- GI50 (SW-620 colon): 3.54 µM
- TGI (SW-620 colon): 13.5 µM
- GI50 (HT29 colon): 3.15 µM
- TGI (HT29 colon): 11 µM
- GI50 (OVCAR-3 ovarian): 4.04 µM
- TGI (OVCAR-3 ovarian): 13.9 µM
- GI50 (MDA-MB-435): 3.81 µM
- TGI (MDA-MB-435): 14.1 µM
- GI50 (K-562 leukemia): 3.24 µM
- TGI (K-562 leukemia): > 100 µM
- GI50 (KM12 colon): 13.2 µM
- TGI (KM12 colon): 30.1 µM
- GI50 (BT-549 breast): 3.47 µM
- TGI (BT-549 breast): 13.8 µM
- GI50 (COLO 205 colon): 4.94 µM
- TGI (COLO 205 colon): 17.2 µM
- GI50 (DU-145 prostate): 3.29 µM
- TGI (DU-145 prostate): 10.8 µM
- GI50 (UACC-62 melanoma): 7.17 µM
- TGI (UACC-62 melanoma): 20.2 µM
- GI50 (MDA-MB-468 breast): 2.5 µM
- TGI (MDA-MB-468 breast): 7.3 µM
- GI50 (SK-MEL-28 melanoma): 5.26 µM
- TGI (SK-MEL-28 melanoma): 17.4 µM
- GI50 (T-47D breast): 6.59 µM
- TGI (T-47D breast): 43.6 µM
- GI50 (UACC-257 melanoma): 12.5 µM
- TGI (UACC-257 melanoma): 26.6 µM
- GI50 (NCI-H226 lung): 11.1 µM
- TGI (NCI-H226 lung): 25.4 µM
- GI50 (ACHN renal): 4.33 µM
- TGI (ACHN renal): 16.6 µM
- GI50 (HCT-15 colon): 3.57 µM
- TGI (HCT-15 colon): 15.7 µM
- GI50 (MOLT-4 leukemia): 3.81 µM
- TGI (MOLT-4 leukemia): 64.9 µM
- GI50 (SN12C renal): 3.59 µM
- TGI (SN12C renal): 15.6 µM
- GI50 (MCF7 breast): 3.19 µM
- TGI (MCF7 breast): 11.9 µM
- GI50 (CAKI-1 renal): 5.23 µM
- TGI (CAKI-1 renal): 20 µM
- GI50 (HCT-116 colon): 7.41 µM
- TGI (HCT-116 colon): 21.7 µM
- GI50 (UO-31 renal): 5.62 µM
- TGI (UO-31 renal): 18.9 µM
- GI50 (M14 melanoma): 8.64 µM
- TGI (M14 melanoma): 29.9 µM
- GI50 (OVCAR-4 ovarian): 12.4 µM
- TGI (OVCAR-4 ovarian): 42.9 µM
- GI50 (SK-MEL-5 melanoma): 10.3 µM
- TGI (SK-MEL-5 melanoma): 22 µM
- GI50 (U251 CNS): 3.91 µM
- TGI (U251 CNS): 18.5 µM
- GI50 (NCI-H460 lung): 3.28 µM
- TGI (NCI-H460 lung): 13.6 µM
- GI50 (SNB-19 CNS): 11.2 µM
- TGI (SNB-19 CNS): 23.4 µM
- GI50 (HOP-62 NSCLC): 11.2 µM
- TGI (HOP-62 NSCLC): 26.4 µM
- GI50 (HOP-92 NSCLC): 11.4 µM
- TGI (HOP-92 NSCLC): 34.9 µM
- GI50 (SF-539 CNS): 2.68 µM
- TGI (SF-539 CNS): 9.09 µM
- GI50 (RPMI-8226 leukemia): 2.91 µM
- TGI (RPMI-8226 leukemia): 15 µM
- GI50 (PC-3 prostate): 10 µM
- TGI (PC-3 prostate): 38 µM
- GI50 (EKVX NSCLC): 5.16 µM
- TGI (EKVX NSCLC): 20.1 µM
- GI50 (SF-268 CNS): 10.4 µM
- TGI (SF-268 CNS): 34.8 µM
- GI50 (TK-10 renal): 8.02 µM
- TGI (TK-10 renal): 20.9 µM
- GI50 (MDA-MB-231 breast): 5.4 µM
- TGI (MDA-MB-231 breast): 18.6 µM
- GI50 (LOX IMVI melanoma): 2.75 µM
- TGI (LOX IMVI melanoma): 9.83 µM
- GI50 (HCC-2998 colon): 11.5 µM
- TGI (HCC-2998 colon): 24 µM
- GI50 (NCI-H522 lung): 3.6 µM
- TGI (NCI-H522 lung): 13.3 µM
- GI50 (CCRF-CEM leukemia): 2.76 µM
- TGI (CCRF-CEM leukemia): 16.8 µM
